Measured values from patent US9296698B2, “Amino heteroaryl compounds as beta-secretase modulators and methods of use” (Amgen Inc., priority 2009, dated 2016).
Like-named read-outs stand apart in the source and are kept apart here.

Key:
[1] = biological target: BACE 1 (Beta Secretase enzyme) (Homo sapiens, UniProt P56817); test: In vitro enzymatic BACE FRET assay; assay type: biochemical; parameters: BACE 1 FRET assay (uM): scale not given here
Experimental: In Vitro Enzymatic BACE FRET (Fluorescence Resonance Energy Transfer) Assay (Enzyme Assay Data in Table 1)
The assay buffer used in this screen is 0.05 M acetate, pH 4.2, 10% DMSO final, 100 uM genapol (which is a nonionic detergent, below its Critical Micelle Concentration). […] The assay is effectively started by the addition of FRET substrate (50 nM) and the combination is incubated for one hour. The FRET assay is terminated with by addition of Tris buffer, which raises the pH to neutrality, and the fluorescence is determined. The FRET substrate is a peptide with commercially available fluorophore and quencher, on opposite sides of the BACE cleavage site.

[2] = system: Aβ40 in conditioned medium of cells stably expressing Amyloid Precursor Protein (APP); test: In vitro BACE cell-based assay (HEK cell assay), Aβ40 sandwich ELISA; conditions: Homo sapiens
Experimental: In Vitro BACE Cell-Based Assay:
The cell-based assay measures inhibition or reduction of Aβ40 in conditioned medium of test compound treated cells expressing amyloid precursor protein.
Cells stably expressing Amyloid Precursor Protein (APP) were plated at a density of 40K cells/well in 96 well plates (Costar). The cells were cultivated for 24 hours at 37° C. and 5% CO2 in DMEM supplemented with 10% FBS. The test compounds were then added to cells in 10-point dose response concentrations with the starting concentration being either 100 μM or 10 μM. The compounds were diluted from stock solutions in DMSO and the final DMSO concentration of the test compounds on cells was 0.1%. After 24 h of incubation with the test compounds the supernatant conditioned media was collected and the Aβ 40 levels were determined using a sandwich ELISA. The IC50 of the compound was calculated from the percent of control or percent inhibition of Aβ 40 as a function of the concentration of the test compound.
The sandwich ELISA to detect Aβ 40 was performed in 96 well microtiter plates, which were pre-treated with goat anti-rabbit IgG (Pierce). The capture and detecting antibody pair that were used to detect Aβ 40 from cell supernatants were affinity purified pAb40 (Biosource) and biotinylated 6E10 (Signet Labs Inc.), respectively. The optimal concentration for the pAb40 antibody was 3 μg/ml in Superblock/TBS (Pierce) that was supplemented with 0.05% Tween 20 (Sigma).
Cellular supernatants were incubated with the capture antibody for 3 h at 4° C., followed by 3 wash steps in TBS-tween (0.05%). The detecting antibody incubation was for 2 h at 4° C., again followed by the wash steps as described previously. The final readout of the ELISA is Time-Resolved Fluorescence (counts per minute) using Delfia reagents Streptavidin-Europium and Enhancement solutions (Perkin Elmer) and the Victor 2 multilabel counter (Perkin Elmer).

[3] = IC50 range symbols, Table 1, read-out: BACE 1 FRET assay
[4] = HEK293, 24 h, IC50 range symbols, Table 1, Aβ40, 24 h incubation, read-out: HEK cell assay
[5] = bound stated, read-out: IC50 value in the FRET BACE enzyme assay
[6] = HEK293, bound stated in text, read-out: IC50 value in the BACE cell-based in-vitro assay

Chain of BACE 1 (Beta Secretase enzyme) (P56817 46-501, species assumed): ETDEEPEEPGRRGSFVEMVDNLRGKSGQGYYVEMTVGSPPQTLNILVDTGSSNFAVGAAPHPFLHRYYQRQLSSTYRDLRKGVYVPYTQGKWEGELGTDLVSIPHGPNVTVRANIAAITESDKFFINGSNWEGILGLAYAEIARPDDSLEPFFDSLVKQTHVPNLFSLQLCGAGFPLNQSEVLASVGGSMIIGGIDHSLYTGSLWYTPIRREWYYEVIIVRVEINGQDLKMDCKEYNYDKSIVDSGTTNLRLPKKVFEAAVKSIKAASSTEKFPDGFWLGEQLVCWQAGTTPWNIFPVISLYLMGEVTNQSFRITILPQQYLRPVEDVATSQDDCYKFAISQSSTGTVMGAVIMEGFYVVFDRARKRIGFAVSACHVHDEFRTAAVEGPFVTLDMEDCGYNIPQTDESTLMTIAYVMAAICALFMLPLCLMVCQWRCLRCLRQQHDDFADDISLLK

Row | IC50 [1, 3] | IC50 [2, 4] | IC50 [1, 5] | IC50 [2, 6] | BACE 1 FRET assay (uM) ([1]; IC50 range symbols, Table 1) | SMILES
1 | 1000 to 5000 nM | > 5000 nM |  |  |  | Nc1nc2ccc(-c3cscn3)cc2cc1CCC(=O)NCC1CCCCC1 [Example 2, 3-(2-amino-6-(thiazol-4-yl)quinolin-3-yl)-N-(cyclohexylmethyl)propanamide]
2 | < 500 nM | 1000 to 5000 nM |  |  |  | Nc1nc2ccc(-c3ccccc3Cl)cc2cc1CCC(=O)NCC1CCCCC1 [Example 3, 3-(2-amino-6-(2-chlorophenyl)quinolin-3-yl)-N-(cyclohexylmethyl)propanamide]
3 | > 5000 nM | > 5000 nM |  |  |  | Cc1nccn1-c1ccc2nc(N)c(CCC(=O)NCC3CCCCC3)cc2c1 [Example 4, 3-(2-amino-6-(2-methyl-1H-imidazol-1-yl)quinolin-3-yl)-N-(cyclohexylmethyl)propanamide]
4 | < 500 nM | > 5000 nM |  |  |  | Cc1ccccc1-c1ccc2nc(N)c(C(C)CC(=O)NCC3CCCCC3)cc2c1 (stereo not shown) [Example 6, 3-(2-amino-6-o-tolylquinolin-3-yl)-N-(cyclohexylmethyl)butanamide]
5 | < 500 nM | 1000 to 5000 nM |  |  |  | CC(Cc1cc2cc(C3CC3C)ccc2nc1N)C(=O)NCCC(C)(C)C (stereo not shown) [Example 7, 3-(2-amino-6-(2-methylcyclopropyl)quinolin-3-yl)-N-(3,3-dimethylbutyl)-2-methylpropanamide]
6 | < 500 nM | < 500 nM | < 50 nM | < 100 nM |  | CNC(=O)[C@H](C)Cc1cc2cc(-c3c(C)cccc3C(=O)N3CCCC3)ccc2nc1N [Example 9, (R)-3-(2-amino-6-(2-methyl-6-(pyrrolidine-1-carbonyl)phenyl)quinolin-3-yl)-N,2-dimethylpropanamide]
7 | < 500 nM | < 500 nM | < 50 nM |  |  | CC(Cc1cc2cc(-c3cccc(Cl)c3)ccc2nc1N)C(=O)NC1CCOC2(CCC2)C1 (stereo not shown) [Example 11, 3-(2-amino-6-(3-chlorophenyl)-3-quinolinyl)-2-methyl-N-(5-oxaspiro[3,5]non-8-yl)propanamide]
8 | < 500 nM | < 500 nM | < 50 nM | < 100 nM |  | Cc1ccccc1-c1ccc2nc(N)c(C[C@@H](C)C(=O)NC3C[C@@H](C)O[C@@H](C)C3)cc2c1 (stereo partly drawn) [Example 12, (2R)-3-(2-amino-6-o-tolylquinolin-3-yl)-N-(cis-2,6-dimethyltetrahydro-2H-pyran-4-yl)-2-methylpropanamide]
9 | < 500 nM | > 5000 nM |  |  |  | Cc1ccccc1-c1ccc2nc(N)c(CCC(=O)NC3CCOCC3)cc2c1 [Example 15, 3-(2-amino-6-o-tolylquinolin-3-yl)-N-(tetrahydro-2H-pyran-4-yl)propanamide]
10 | < 500 nM | > 5000 nM |  |  |  | Cc1ccccc1-c1ccc2nc(N)c(CCC(=O)NCC3CCCO3)cc2c1 (stereo not shown) [Example 17, 3-(2-amino-6-o-tolylquinolin-3-yl)-N-((tetrahydrofuran-2-yl)methyl)propanamide]
11 | < 500 nM | > 5000 nM |  |  |  | COCCNC(=O)CCc1cc2cc(-c3ccccc3C)ccc2nc1N [Example 18, 3-(2-amino-6-o-tolylquinolin-3-yl)-N-(2-methoxyethyl)propanamide]
12 | < 500 nM | 1000 to 5000 nM |  |  |  | Cc1ccccc1-c1ccc2nc(N)c(CCC(=O)NCC3CCOCC3)cc2c1 [Example 19, 3-(2-amino-6-o-tolylquinolin-3-yl)-N-((tetrahydro-2H-pyran-4-yl)methyl)propanamide]
13 | < 500 nM | > 5000 nM |  |  |  | Cc1ccccc1-c1ccc2nc(N)c(CCC(=O)NCC(C)(C)C)cc2c1 [Example 21, 3-(2-amino-6-o-tolylquinolin-3-yl)-N-neopentylpropanamide]
14 | < 500 nM | < 500 nM |  |  |  | Cc1ccccc1-c1ccc2nc(N)c(CCC(=O)NCc3ccccc3)cc2c1 [Example 23, 3-(2-amino-6-o-tolylquinolin-3-yl)-N-benzylpropanamide]
15 | < 500 nM | < 500 nM |  |  |  | Cc1ccccc1-c1ccc2nc(N)c(CCC(=O)NCCC3CCCCC3)cc2c1 [Example 24, 3-(2-amino-6-o-tolylquinolin-3-yl)-N-(2-cyclohexylethyl)propanamide]
16 | < 500 nM | 500 to 1000 nM |  |  |  | Cc1ccccc1-c1ccc2nc(N)c(CCC(=O)Nc3ccccc3)cc2c1 [Example 25, 3-(2-amino-6-o-tolylquinolin-3-yl)-N-phenylpropanamide]

Row | IC50 [1, 3] | IC50 [2, 4] | IC50 [1, 5] | IC50 [2, 6] | BACE 1 FRET assay (uM) ([1]; IC50 range symbols, Table 1) | SMILES
17 |  | 1000 to 5000 nM |  |  | _++ | Nc1nc2ccc(-c3cccnc3)cc2cc1CCC(=O)NCC1CCCCC1 [Example 34, 3-(2-amino-6-(pyridin-3-yl)quinolin-3-yl)-N-(cyclohexylmethyl)propanamide]
18 | 500 to 1000 nM | > 5000 nM |  |  |  | Cc1ncccc1-c1ccc2nc(N)c(CCC(=O)NCC3CCCCC3)cc2c1 [Example 38, 3-(2-amino-6-(2-methylpyridin-3-yl)quinolin-3-yl)-N-(cyclohexylmethyl)propanamide]
19 | 1000 to 5000 nM | 1000 to 5000 nM |  |  |  | Cc1ccccc1-c1ccc2nc(N)c(CCC(=O)NC3CCCN(C)C3)cc2c1 (stereo not shown) [Example 39, 3-(2-amino-6-o-tolylquinolin-3-yl)-N-(1-methylpiperidin-3-yl)propanamide]
20 | < 500 nM | 1000 to 5000 nM |  |  |  | Cc1ccccc1-c1ccc2nc(N)c(CCC(=O)NCC3CCCCO3)cc2c1 (stereo not shown) [Example 40, 3-(2-amino-6-o-tolylquinolin-3-yl)-N-((tetrahydro-2H-pyran-2-yl)methyl)propanamide]
21 | < 500 nM | 1000 to 5000 nM |  |  |  | N#Cc1ccccc1-c1ccc2nc(N)c(CCC(=O)NCC3CCCCC3)cc2c1 [Example 41, 3-(2-amino-6-(2-cyanophenyl)quinolin-3-yl)-N-(cyclohexylmethyl)propanamide]
22 | < 500 nM | > 5000 nM |  |  |  | Nc1nc2ccc(-c3ccccc3F)cc2cc1CCC(=O)NCC1CCCCC1 [Example 42, 3-(2-amino-6-(2-fluorophenyl)quinolin-3-yl)-N-(cyclohexylmethyl)propanamide]
23 | 500 to 1000 nM | 1000 to 5000 nM |  |  |  | Nc1nc2ccc(-c3cccc(F)c3)cc2cc1CCC(=O)NCC1CCCCC1 [Example 43, 3-(2-amino-6-(3-fluorophenyl)quinolin-3-yl)-N-(cyclohexylmethyl)propanamide]
24 | < 500 nM | 1000 to 5000 nM |  |  |  | COc1ccccc1-c1ccc2nc(N)c(CCC(=O)NCC3CCCCC3)cc2c1 [Example 44, 3-(2-amino-6-(2-methoxyphenyl)quinolin-3-yl)-N-(cyclohexylmethyl)propanamide]
25 | 500 to 1000 nM | > 5000 nM |  |  |  | Nc1nc2ccc(-c3ccccc3)cc2cc1CCC(=O)NCC1CCCCC1 [Example 45, 3-(2-amino-6-phenylquinolin-3-yl)-N-(cyclohexylmethyl)propanamide]
26 | 1000 to 5000 nM | > 5000 nM |  |  |  | Cc1ccncc1-c1ccc2nc(N)c(CCC(=O)NCC3CCCCC3)cc2c1 [Example 46, 3-(2-amino-6-(4-methylpyridin-3-yl)quinolin-3-yl)-N-(cyclohexylmethyl)propanamide]
27 | < 500 nM | 1000 to 5000 nM |  |  |  | Cc1ccccc1-c1ccc2nc(N)c(CC(C)C(=O)N[C@H](C)C3CCCCC3)cc2c1 (stereo partly drawn) [Example 47, 3-(2-amino-6-o-tolylquinolin-3-yl)-N-((R)-1-cyclohexylethyl)-2-methylpropanamide]
28 | < 500 nM | 1000 to 5000 nM |  |  |  | Cc1ccccc1-c1ccc2nc(N)c(CCCNC(=O)C3CCCCC3)cc2c1 [Example 48, N-(3-(2-amino-6-o-tolylquinolin-3-yl)propyl)cyclohexanecarboxamide]
29 | < 500 nM | 1000 to 5000 nM |  |  |  | CCc1ccccc1-c1ccc2nc(N)c(CCC(=O)NCC3CCCCC3)cc2c1 [Example 49, 3-(2-amino-6-(2-ethylphenyl)quinolin-3-yl)-N-(cyclohexylmethyl)propanamide]
30 | < 500 nM | > 5000 nM |  |  |  | CCC(Cc1cc2cc(-c3ccccc3C)ccc2nc1N)C(=O)Nc1ccccc1F (stereo not shown) [Example 50, 2-((2-amino-6-o-tolylquinolin-3-yl)methyl)-N-(2-fluorophenyl)butanamide]
31 | < 500 nM | 1000 to 5000 nM |  |  |  | Cc1ccccc1-c1ccc2nc(N)c(CC(C)C(=O)Nc3ccccc3)cc2c1 (stereo not shown) [Example 51, 3-(2-amino-6-o-tolylquinolin-3-yl)-2-methyl-N-phenylpropanamide]
